Experimental data: US20080075796A1, “Compositions and Methods for Controlling Insects” (TyraTech, Inc., priority 2003, published 2008)

Key:
[1] = system: Drosophila melanogaster tyramine receptor (TyrR), SEQ ID NO: 2; assay: Inhibition of 3H-tyramine binding to membranes of Schneider cells expressing TyrR; details: compared with tyramine, FIG. 4
Experimental: Phage DNA is purified from this library using a liquid culture lysate.
In order to determine the pharmacological profile of tyramine receptor (TyrR), the ability of a number of putative Drosophila neurotransmitters to displace ^3H-tyramine (^3H-TA) binding from membranes expressing tyramine receptor is tested.

[2] = system: control Schneider cells; assay: Intracellular Ca2+ mobilization in control Schneider cells; format: cell-based, Drosophila; details: FIG. 22
Experimental: (§1) Intracellular calcium ion concentrations ([Ca^2+]i) are measured by using the acetoxymethyl (AM) ester of the fluorescent indicator fura-2 (Enan, et al., Biochem. Pharmacol vol 51, 447-454). In this study, cells expressing tyramine receptor are grown under standard conditions. A cell suspension is prepared in assay buffer (140 mM NaCL, 10 mM HEPES, 10 mM glucose, 5 mM KCl, 1 mM CaCl2, 1 mM MgCl2) and cell number adjusted to about 2×10^6 cells per ml. Briefly, about 1.0 ml cell suspension (about 2×10^6 cells) is incubated with about 5 μM Fura 2/AM for about 30 min at about 28° C. After incubation, the cells are pelleted at about 3700 rpm for about 10 sec at room temperature and then resuspended in about 1.5 ml assay buffer. [Ca^2+]i changes are analyzed in spectrofluorometer in the presence and absence of test chemicals. Excitation wave lengths are about 340 nm (generated by Ca^2+-bound fura-2) and about 380 nm (corresponding to Ca^2+-free fura-2). The fluorescence intensity is monitored at an emission wave length of about 510 nm. No absorbance of fluorescence artifacts are observed with any of the compounds used. The ratio of about 340/380 nm is calculated and plotted as a function of time.
(§2) Changes in intracellular Ca^2+ levels are calculated based on the difference between the 340/380 fluorescence ratios before and after approximately 150 seconds of the treatment.

[3] = target: T1, Or83b receptor (Drosophila melanogaster, UniProt Q9VNB5); assay: Intracellular Ca^2+ mobilization in Schneider cells expressing Or83b receptor; format: cell-based; details: ionomycin about 2 μM, tyramine about 10 μM
T1 construct: His (from vector pAc5.1/V5-His B) (C); expressed in transfected cells
T1 sequence (Q9VNB5 1-486): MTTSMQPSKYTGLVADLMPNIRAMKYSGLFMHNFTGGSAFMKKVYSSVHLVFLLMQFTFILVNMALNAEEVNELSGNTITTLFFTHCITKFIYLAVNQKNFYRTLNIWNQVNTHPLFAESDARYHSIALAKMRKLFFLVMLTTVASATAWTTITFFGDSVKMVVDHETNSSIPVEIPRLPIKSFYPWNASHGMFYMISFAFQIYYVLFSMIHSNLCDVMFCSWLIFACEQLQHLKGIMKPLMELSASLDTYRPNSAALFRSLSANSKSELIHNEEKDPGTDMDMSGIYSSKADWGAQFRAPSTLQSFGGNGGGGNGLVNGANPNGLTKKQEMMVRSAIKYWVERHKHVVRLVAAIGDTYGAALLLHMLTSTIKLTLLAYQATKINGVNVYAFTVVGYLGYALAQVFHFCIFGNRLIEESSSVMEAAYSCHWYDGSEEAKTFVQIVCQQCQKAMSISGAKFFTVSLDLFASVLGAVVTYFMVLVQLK
Experimental: as §1
(§3) Intracellular Ca^2+ levels are measured using the method described above in Example 3.

[4] = target: T2, Or43a receptor (Drosophila melanogaster, UniProt P81917, L154V); assay: Intracellular Ca^2+ mobilization in Schneider cells expressing Or43a receptor; format: cell-based
T2 construct: His (from vector pAc5.1/V5-His B) (C); expressed in transfected cells
T2 sequence (P81917 whole entry L154V): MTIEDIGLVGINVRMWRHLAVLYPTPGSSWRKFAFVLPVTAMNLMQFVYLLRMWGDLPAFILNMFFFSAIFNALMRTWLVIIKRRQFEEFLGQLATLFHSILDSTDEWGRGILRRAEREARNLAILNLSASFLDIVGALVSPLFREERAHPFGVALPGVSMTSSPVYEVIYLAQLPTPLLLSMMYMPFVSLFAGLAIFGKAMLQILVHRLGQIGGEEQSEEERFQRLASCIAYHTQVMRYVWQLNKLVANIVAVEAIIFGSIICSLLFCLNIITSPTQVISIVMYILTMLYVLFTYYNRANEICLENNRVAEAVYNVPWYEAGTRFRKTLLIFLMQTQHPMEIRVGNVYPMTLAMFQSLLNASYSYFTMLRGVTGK
Experimental: as §1, §3, §2

[5] = target: T3, tyramine receptor (TyrR) (Drosophila melanogaster, UniProt P22270); assay: Saturation binding of ^3H-tyramine to membranes from Schneider cells expressing tyramine receptor; details: saturation binding, membranes expressing TyrR
T3 sequence (P22270 27-601): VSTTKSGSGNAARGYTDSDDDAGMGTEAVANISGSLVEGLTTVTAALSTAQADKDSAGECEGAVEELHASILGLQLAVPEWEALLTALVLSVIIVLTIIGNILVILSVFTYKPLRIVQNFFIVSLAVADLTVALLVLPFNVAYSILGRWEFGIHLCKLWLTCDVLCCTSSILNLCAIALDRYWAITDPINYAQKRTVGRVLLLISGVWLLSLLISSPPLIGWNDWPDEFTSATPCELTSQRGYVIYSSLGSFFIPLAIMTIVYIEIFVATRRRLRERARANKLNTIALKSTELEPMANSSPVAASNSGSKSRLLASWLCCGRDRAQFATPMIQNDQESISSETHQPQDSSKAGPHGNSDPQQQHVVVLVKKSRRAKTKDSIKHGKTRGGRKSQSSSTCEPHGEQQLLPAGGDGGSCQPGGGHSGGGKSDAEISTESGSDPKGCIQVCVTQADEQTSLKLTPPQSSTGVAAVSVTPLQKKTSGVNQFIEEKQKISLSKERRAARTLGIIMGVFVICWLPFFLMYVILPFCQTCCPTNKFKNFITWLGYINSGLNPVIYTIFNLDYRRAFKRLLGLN
Experimental: A preliminary study to determine the optimum concentration of membrane protein for receptor binding activity is performed. […] After about 1 hr incubation at room temperature, reactions are terminated by filtration through GF/C filters (VWR), which have been previously soaked in about 0.3% polyethyleneimine (PEI). The filters are washed one time with about 4 ml ice cold Iris buffer and air dried before the retained radioactivity is measured using LSC. Binding data is analyzed by curve fitting (GraphPad software, Prism).
Receptor binding reactions are incubated for about 1 hr at room temperature (RT) in restricted light. Reactions are terminated by filtration through OF/C filters (VWR), which have been previously soaked in about 0.3% polyethyleneimine (PEI). The filters are washed one time with about 4 ml ice cold Tris buffer and air dried before retained radioactivity is measured using LSC. Binding data is analyzed by curve fitting (GraphPad software, Prism).

[6] = target: T3, tyramine receptor (TyrR); assay: cAMP levels in Schneider cells expressing tyramine receptor; format: cell-based; parameters: oligonucleotides that are used to amplify the open reading frame of the Drosophila tyramine receptor (TyrR); expressed in transfected cells; details: forskolin about 10 μM, transfected cells, vs solvent (ethanol)
Experimental: (§4) Cells are grown on dishes and the media changed the day before the treatment. When cells are approximately 95% confluent, media is aspirated and the cells are washed one time with about 5 mL of about 27° C. insect saline (170 mM NaCl, 6.0 mM KCl, 2.0 mM NaHCO3, 17.0 mM glucose, 6.0 mM NaH2PO4, 2.0 mM CaCl2, 4.0 mM MgCl2; pH 7.0). About 20 mL of insect saline is added, and cells are harvested by gentle scraping. An aliquot of the cells is counted by hemocytometer, and the cells are then centrifuged for about 5 minutes at about 1000 RPM. Cells are resuspended to give about 3×10^6 cells per mL. IBMX is added to about 200 μM. Then about 1 mL of cell suspension is aliquoted for treatment. Forskolin (cAMP inducing agent), tyramine or different composition candidates are added, and the cells are incubated at about 27° C. for about 10 minutes.
Treated cells are centrifuged at about 13000 g for about 10 seconds. The solution is aspirated and about 1 mL of about −20° C. 70% ethanol is added. The cell pellet is disrupted by vortexing and the samples placed at about −20° C. overnight. Following the ethanol extraction, cellular debris is pelleted by centrifugation at about 13000 g for about 5 minutes. The supernatant is transferred to a tube and lyophilized to dryness in a rotary speed-vac. […]
The cAMP assay is based on competition binding between endogenous cAMP and ^3H-cAMP to a cAMP binding protein. […] About 200 μL of the reaction mixture is removed and levels of ^3H-cAMP are determined by scintillation counting. Levels of endogenous cAMP from the cells are calculated using a standard curve with cold cAMP ranging from about 0 to 16 pmol per reaction.
To examine test chemical-dependent coupling of the tyramine receptor, pAcB-TyrR is stably expressed in Schneider cells. Transfected and untransfected cells are treated with tyramine (about 10 μM), LFO (about 25 μg/ml) and BSO (about 25 μg/ml) in the presence and absence of forskolin (FK) (about 10 μM). cAMP production is measured using the ^3H-cAMP assay kit (Amersham) as described above.

[7] = target: T2, Or43a receptor; assay: cAMP production in Schneider cells expressing Or43a receptor; format: cell-based; details: agent alone; tyramine about 20 μM, LFO, BSO about 50 μg/ml, forskolin about 10 μM
Experimental: as §4, with “When cells are approximately 95% confluent, media is aspirated and the cells are washed one time with about 5 mL of about 27° C. insect saline (170 mM NaCl, 6.0 mM KCl, 2.0 mM NaHCO3, 17.0 mM glucose, 6.0 mM NaH2PO4, 2.0 mM CaCl2, 4.0 mM MgCl2; pH 7.0).” left out
(§5) Treated cells are centrifuged at about 13000 g for about 10 seconds. The solution is aspirated and about 1 mL of about −20° C. 70% ethanol is added. The cell pellet is disrupted by vortexing and the samples placed at about −20° C. overnight. Following the ethanol extraction, cellular debris is pelleted by centrifugation at about 13000 g for about 5 minutes. The supernatant is transferred to a tube and lyophilized to dryness in a rotary speed-vac. The resulting extract is resuspended in about 100 μL TE and used for the cAMP assay.
(§6) The cAMP assay is based on competition binding between endogenous cAMP and ^3H-cAMP to a cAMP binding protein. The ^3H-cAMP Biotrak system (Amersham Biosciences) is used for this assay as per the manufacturer's instructions. Briefly, about 50 μL of the cellular extract is incubated with about 50 μL ^3H-cAMP and about 100 μL cAMP binding protein in an ice bath for about 2-4 hours. Charcoal (about 100 μL) is then added and the solution centrifuged for about 3 minutes at about 4° C. About 200 μL of the reaction mixture is removed and levels of ^3H-cAMP are determined by scintillation counting.
As such, the cells expressing olfactory receptors have a functionally active cAMP cascade.

[8] = target: T1, Or83b receptor; assay: cAMP production in Schneider cells expressing Or83b receptor; format: cell-based
Experimental: as §4, §5
as §6, with “counting. Levels of endogenous cAMP from the cells are calculated using a standard curve with cold cAMP ranging from about 0 to 16 pmol per reaction.” for “counting.”
To ensure that the cAMP cascade in this cell model is functionally active, forskolin, a cAMP inducer, is used as standard agent. Cyclic-AMP levels are measured using the cAMP assay described above in Example 2. […]
To determine the effect of various plant essential oils on intracellular cAMP production and the tyramine-dependent changes of cAMP in cells expressing one of the olfactory receptors, cells from each cell model are treated with LFO (about 50 μg/ml) and BSO (about 50 μg/ml) in the presence and absence of tyramine (about 20 μM) and forskolin (about 10 μM) and intracellular cAMP is thereafter quantified using the cAMP assay described above in Example 2.

Compound: NCCc1c[nH]c2ccc(O)cc12 [Serotonin]
- displacing 3H-tyramine binding [1]: less efficient than tyramine

Compound: NCCc1ccc(O)c(O)c1 [Dopamine]
- displacing 3H-tyramine binding [1]: less efficient than tyramine

Compound: NCC(O)c1ccc(O)cc1 (stereo not shown) [Octopamine]
- displacing 3H-tyramine binding [1]: less efficient than tyramine

Compound: C[C@H](CCC(=O)O)C[C@H](C)C[C@H](C)C(=O)/C=C(\O)[C@H](C)C[C@H](C)C/C=C/[C@@H](C)[C@@H](O)[C@@H](C)[C@@H](O)C[C@@H]1CC[C@@](C)([C@H]2CC[C@@](C)([C@@H](C)O)O2)O1 [ionomycin]
- mobilization of Ca2+ in control cells [2]: induce mobilization of Ca^2+

Compound: C[C@H](CCC(=O)O)C[C@H](C)C[C@H](C)C(=O)/C=C(\O)[C@H](C)C[C@H](C)C/C=C/[C@@H](C)[C@@H](O)[C@@H](C)[C@@H](O)C[C@@H]1CC[C@@](C)([C@H]2CC[C@@](C)([C@@H](C)O)O2)O1 [ionomycin, reference compound]
- increase in intracellular calcium [3]: Approximately 3.8 fold
- change in intracellular Ca^2+ levels (340/380 fluorescence ratio) ([4]; before vs approximately 150 seconds after treatment): only negligibly
- increase in intracellular calcium ([4]; ionomycin about 2 μM, tyramine about 10 μM): ~7 fold

Compound: NCCc1ccc(O)cc1 [^3H-tyramine]
- Bmax [5]: about 0.679 pmol/mg protein
- Kd [5]: ~1.26 nM

Compound: C=C[C@@]1(C)CC(=O)[C@]2(O)[C@@]3(C)[C@@H](O)CCC(C)(C)[C@@H]3[C@H](O)[C@H](OC(C)=O)[C@@]2(C)O1 [forskolin]
- increase in cAMP levels over basal level [6]: ~19 fold
- change in cAMP levels [7]: increase in cAMP levels
- increase in the production of cAMP ([8]; forskolin about 10 μM (Example 11)): ~3000 fold
- increase from basal cAMP levels ([8]; forskolin about 10 μM, about 10 min, room temperature): ~13 fold
